Source: patent publication US7351700B2, “Aminomethylpyrimidines as allosteric enhancers of the GABAB receptors” (Hoffmann-La Roche Inc., priority 2004, dated 2008)

How the values were obtained:
human GABABR1aR2a = target: T1, human GABABR1aR2a (Homo sapiens, UniProt O75899+Q9UBS5); experiment: Intracellular Ca2+ mobilization assay (FLIPR) in CHO-GABABR1aR2a-Gα16 cell; assay type: cell-based; settings: for GABA shift Log [EC50(GABA + 10 μM cp)/EC50(GABA alone)]: 10 μM enhancer applied 15 min before GABA (0.0003-30 μM); for Emax: enhancer 0.001-30 μM in presence of 10 nM GABA (EC10), normalized to 10 μM GABA = 100%, 10 nM GABA = 0%, read-out: Emax (%) at 10 nM GABA alone = 0% 10 μM GABA alone = 100%; for EC50: enhancer concentration-response in presence of 10 nM GABA
T1 construct: expressed in transfected cells
Protocol: Intracellular Ca^2+ Mobilization Assay
The Chinese Hamster Ovary (CHO) cells stably expressing human GABABR1aR^2a and Gα16 were seeded at 5×10^4 cells/well in the poly-D-lysine treated, 96-well, black/clear-bottomed plates (BD Biosciences, Palo Alto, Calif.). 24 h later, the cells were loaded for 90 min at 37° C. with 4 μM Flou-4 acetoxymethyl ester (Catalog No. F-14202, Molecular Probes, Eugene, Oreg.) in loading buffer (1×HBSS, 20 mM HEPES, 2.5 mM Probenecid). Hanks' Balanced Salt Solution (HBSS) (10×) (catalog No. 14065-049) and HEPES (1M) (catalog No. 15630-056) were purchased from Invitrogen, Carlsbad, Calif. Probenecid (250 mM) (catalog No. P8761) was from Sigma, Buchs, Switzerland. The cells were washed five times with loading buffer to remove excess dye and intracellular calcium mobilization, [Ca^2+ ]i were measured using a Fluorometric Imaging Plate Reader (FLIPR, Molecular Devices, Menlo Park, Calif.) as described previously (Porter et al., Br. J. Pharmacol., 128, 13-20, 1999). The enhancers were applied 15 min before the application of the GABA. For GABA shift assay, concentration-response curves of GABA (0.0003-30 μM) were determined in the absence and presence of 10 μM enhancer. The GABA-shift is defined as Log [EC50 (GABA+10 μM enhancer)/EC50 (GABA alone)]. The % maximum enhancing effect (% Emax) potency (EC50 value) of each enhancer was determined from concentration-response curve of the enhancer (0.001-30 μM) in the presence of 10 nM (GABA) (EC10). Responses were measured as peak increase in fluorescence minus basal, normalized to the maximal stimulatory effect induced by 10 μM GABA alone (considered 100%) and 10 nM GABA alone (considered 0%). The data were fitted with the equation Y=100+(Max −100)/(1+(EC50/[drug])^n) where Max is the maximum effect, EC50 the concentration eliciting a half-maximum effect and n the Hill slope.

[1] = elevated plus maze (rat), elevated zero maze (mice and rats), stress-induced hyperthermia (mice); cited from earlier work
[2] = rats; cited from earlier work
[3] = passive avoidance behavioral test in mice and rats; cited from earlier work
[4] = PO, cited from earlier work

T1 sequence (Q9UBS5 15-961 limits assumed): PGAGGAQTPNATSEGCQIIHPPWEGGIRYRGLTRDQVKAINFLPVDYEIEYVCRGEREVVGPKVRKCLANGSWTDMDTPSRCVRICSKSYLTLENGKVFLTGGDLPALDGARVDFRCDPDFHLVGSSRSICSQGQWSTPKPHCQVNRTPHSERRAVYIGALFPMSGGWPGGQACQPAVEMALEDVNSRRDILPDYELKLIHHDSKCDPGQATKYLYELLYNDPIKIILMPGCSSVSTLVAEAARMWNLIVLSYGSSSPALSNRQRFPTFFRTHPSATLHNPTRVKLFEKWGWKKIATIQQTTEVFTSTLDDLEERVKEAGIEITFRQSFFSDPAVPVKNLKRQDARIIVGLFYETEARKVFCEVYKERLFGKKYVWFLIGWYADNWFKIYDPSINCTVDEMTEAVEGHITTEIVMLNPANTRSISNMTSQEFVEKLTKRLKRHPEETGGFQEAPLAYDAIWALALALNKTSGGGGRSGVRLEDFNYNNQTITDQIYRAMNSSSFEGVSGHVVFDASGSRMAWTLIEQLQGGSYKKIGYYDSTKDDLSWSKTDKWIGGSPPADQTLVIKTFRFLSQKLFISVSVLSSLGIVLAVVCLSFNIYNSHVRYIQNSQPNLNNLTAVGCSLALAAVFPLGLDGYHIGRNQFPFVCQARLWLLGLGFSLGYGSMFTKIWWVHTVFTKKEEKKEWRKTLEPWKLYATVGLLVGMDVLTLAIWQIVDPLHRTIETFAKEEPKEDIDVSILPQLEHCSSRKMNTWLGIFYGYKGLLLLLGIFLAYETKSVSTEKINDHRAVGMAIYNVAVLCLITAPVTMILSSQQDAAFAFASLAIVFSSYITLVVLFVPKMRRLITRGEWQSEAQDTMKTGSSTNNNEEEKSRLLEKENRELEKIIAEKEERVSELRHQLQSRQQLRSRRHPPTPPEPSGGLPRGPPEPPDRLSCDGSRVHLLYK
T1 sequence (O75899 42-941): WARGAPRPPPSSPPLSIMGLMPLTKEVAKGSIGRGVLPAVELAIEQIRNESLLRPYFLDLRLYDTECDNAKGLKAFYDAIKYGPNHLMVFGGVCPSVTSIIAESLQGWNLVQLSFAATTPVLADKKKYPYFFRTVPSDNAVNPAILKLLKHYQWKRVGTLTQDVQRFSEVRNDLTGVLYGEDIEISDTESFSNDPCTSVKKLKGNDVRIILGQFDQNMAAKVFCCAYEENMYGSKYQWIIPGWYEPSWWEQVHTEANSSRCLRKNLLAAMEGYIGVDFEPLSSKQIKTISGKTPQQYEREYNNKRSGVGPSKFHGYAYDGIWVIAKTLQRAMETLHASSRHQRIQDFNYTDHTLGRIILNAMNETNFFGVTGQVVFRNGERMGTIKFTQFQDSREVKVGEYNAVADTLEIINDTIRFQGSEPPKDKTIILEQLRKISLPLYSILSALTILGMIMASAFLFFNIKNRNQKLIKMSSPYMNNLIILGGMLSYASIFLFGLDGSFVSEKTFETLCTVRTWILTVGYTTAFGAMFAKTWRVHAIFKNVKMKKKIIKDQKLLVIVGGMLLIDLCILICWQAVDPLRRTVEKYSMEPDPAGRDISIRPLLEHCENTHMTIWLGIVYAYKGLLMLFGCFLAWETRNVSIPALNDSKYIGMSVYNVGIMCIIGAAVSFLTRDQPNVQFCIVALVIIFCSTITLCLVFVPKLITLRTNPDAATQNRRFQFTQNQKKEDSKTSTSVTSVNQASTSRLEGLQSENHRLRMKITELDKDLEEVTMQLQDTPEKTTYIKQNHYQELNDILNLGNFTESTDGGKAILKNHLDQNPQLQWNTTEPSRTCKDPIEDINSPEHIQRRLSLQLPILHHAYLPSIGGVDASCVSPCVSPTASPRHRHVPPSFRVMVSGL

Structure (SMILES)	GABA shift Log [EC50(GABA + 10 μM cp)/EC50(GABA alone)] (human GABABR1aR2a)	Emax (human GABABR1aR2a) [%]	EC50 (human GABABR1aR2a) [µM]	also measured
CCCCCSc1nc(C)cc(CN2CCOCC2)n1 [Example 2, 4-(6-Methyl-2-pentylsulfanyl-pyrimidin-4-ylmethyl)-morpholine]	−0.55	52	1.7	–
Cc1cc(CN2CCOCC2)nc(SCc2ccc(C(C)(C)C)cc2)n1 [Example 11, 4-[2-(4-tert-Butyl-benzylsulfanyl)-6-methyl-pyrimidin-4-ylmethyl]-morpholine]	−0.60	41	4.2	–
CCCCCCSc1nc(C)cc(CN2CCCCC2C)n1 (stereo not drawn) [Example 31, 2-Hexylsulfanyl-4-methyl-6-(2-methyl-piperidin-1-ylmethyl)-pyrimidine]	−0.69	60	9.6	–
CSc1nc(NC2CCCC2)c([N+](=O)[O-])c(NC2CCCC2)n1 [GS39783, N,N_-dicyclopentyl-2-methylsulfanyl-5-nitro-pyrimidine-4,6-diamine]	–	–	–	anxiolytic-like effects [1]: exhibited anxiolytic-like effects; decreasing cocaine self-administration [2]: effective; effect on cognition performance [3]: did not have any effect; effect on spontaneous locomotor activity, rotarod, body temperature and traction test ([4]; 0.1-200 mg/kg): no effect
CCCCCCSc1nc(C)cc(CN2[C@H](C)CCC[C@@H]2C)n1 [Example 38, 4-(cis-2,6-Dimethyl-piperidin-1-ylmethyl)-2-hexylsulfanyl-6-methyl-pyrimidine]	−0.71	61	6.3	–
CCCCCCSc1nc(C)cc(CN2CCOCC2)n1 [Example 1, 4-(2-Hexylsulfanyl-6-methyl-pyrimidin-4-ylmethyl)-morpholine]	−0.75	46	2.2	–
CCCCCCSc1nc(C)cc(CN2C(C)CCCC2C)n1 (stereo not drawn) [Example 37, 4-(2,6-Dimethyl-piperidin-1-ylmethyl)-2-hexylsulfanyl-6-methyl-pyrimidine]	−0.76	74.2	8.2	–
CCCCCCSc1nc(CN2CCOCC2)cc(C(F)(F)F)n1 [Example 39, 4-(2-Hexylsulfanyl-6-trifluoromethyl-pyrimidin-4-ylmethyl)-morpholine]	−0.48	62	6.4	–
CCCCCCSc1nc(CC)cc(CN2CCOCC2)n1 [Example 41, 4-(2-Hexylsulfanyl-6-ethyl-pyrimidin-4-ylmethyl)-morpholine]	−0.86	60	4.1	–
CCCCCCSc1nc(C)cc(CN2CCCC2)n1 [Example 16, 2-Hexylsulfanyl-4-methyl-6-pyrrolidin-1-ylmethyl-pyrimidine]	−0.50	48	8.5	–
CCCCCCSc1nc(C)cc(CN2C[C@@H]3C[C@@H](C2)c2cccc(=O)n2C3)n1 [Example 35, (1S,5S)-3-(2-Hexylsulfanyl-6-methyl-pyrimidin-4-ylmethyl)-1,2,3,4,5,6-hexahydro-1,5-methano-pyrido [1,2-a][1,5]diazocin-8-one]	−0.92	62	1.8	–
NCC(CC(=O)O)c1ccc(Cl)cc1 (stereo not drawn) [Baclofen, β-chlorophenyl GABA]	–	–	–	side effects (spontaneous locomotor activity, rotarod, body temperature, traction test) ([4]; 2.5-15 mg/kg): showed these side effects
CC(C)(CO)Cc1cc(C(C)(C)C)c(O)c(C(C)(C)C)c1 [CGP7930, 2,6-di-tert-butyl-4-(3-hydroxy-2,2-dimethyl-propyl)-phenol]	–	–	–	decreasing cocaine self-administration [2]: effective
CCCCCCSc1nc(C)cc(C(C)N2CCOCC2)n1 (stereo not drawn) [Example 43, 4-[1-(2-Hexylsulfanyl-6-methyl-pyrimidin-4-yl)-ethyl]-morpholine]	−0.70	49	4.4	–
